Data reported in publication PMC9322052, “Synthesis and Biological Activity Screening of Newly Synthesized Trimethoxyphenyl-Based Analogues as Potential Anticancer Agents” (Molecules, 2022).

Key:
[1] = tested on: p53; assay: ELISA quantification of p53 level; assay type: cell-based, human; details: HepG2, 1.38 μM (IC50), 48 h
Method: (§1) Compound 9 was screened for its ability to activate p53 and Bax as well as downregulate the level of Bcl-2 to investigate the mechanistic apoptotic pathway that catalyzed the apoptosis process. HepG2 cells were treated with compound 9 at a concentration equal to its IC50 in μM, and the level of p53, Bax, and Bcl-2 was quantized using ELISA analysis. The results obtained for compound 9 show the increase in the level of p53 and Bax by 8.91- and 4.50-fold, respectively, compared with the negative control samples.
(§2) Apoptotic markers (p53, Bax and Bcl-2) were measured in HepG2 cells using ELISA analysis according to the manufacturer’s directions. See Section 3.3.6 in Supplementary Material.
(§3) Figure 6 (A) The quantification of p53. (B) The quantification of Bax. (C) The quantification of Bcl-2. HepG2 cells were treated with 1.38 μM of compound 9 for 48 h and apoptotic markers were determined by ELISA assay.
(§4) 3.3.1. Cytotoxic activity evaluation
(§5) To measure the cytotoxic activity of the synthesized derivatives 2a-11 in hepatocel-lular carcinoma (HepG2) cell line (ATCC Cat No. HB-8065) as well as normal human liver cell line HL-7702 (ATCC Cat. No. 77402), cell viability assay was assessed using MTT assay method. […] The color inten-sity of the formazan product, which represents the growth condition of the cells, is quan-tified by using an ELISA plate reader (EXL 800, USA) at 570 nm absorbance. […]

[2] = tested on: Bax; assay: ELISA quantification of Bax level; assay type: cell-based, human; details: HepG2, 1.38 μM (IC50), 48 h
Method: as §1, §2, §3, §4, §5

[3] = tested on: normal liver cell line HL-7702; assay: MTT cytotoxicity assay, normal liver cells; assay type: cell-based; details: Homo sapiens, L02, 24 h treatment, mean ± SE
Method: (§6) All the newly synthesized analogs were evaluated for their in vitro cytotoxicity against the hepatocellular carcinoma HepG2 cell line. Podo was utilized as a reference control in the current study. […] The N-phenyl triazinone derivative 9 was further investigated for its cytotoxic effects against normal liver cell line HL-7702.
(§7) MTT colorimetric assay was carried out to investigate the impact of the newly synthesized compounds 2–11 on hepatocellular carcinoma (HepG2) and normal liver cell line (HL-7702) cell lines. See Section 3.3.1 in Supplementary Material.
as §4
as §5, with “method. Cells at density of 1 x 104 were seeded in a 96-well plate at 37 °C for 24 h under 5% CO2.” for “method.”
(§8) Compounds 9, 10 and 11 were evaluated for their tubulin inhibitory activity levels according to the manufacturer’s instructions using # abcam Human Beta-tubulin simplestep […]
(§9) 3.3.5. […] The samples were immediately analyzed using cell […]

[4] = tested on: HepG2 cells; assay: Annexin V-FITC/PI dual staining apoptosis assay; assay type: cell-based, human
Method: The extent of apoptosis induced by compound 9 in HepG2 cells was quantified by the FACS analysis. Cells were harvested after 48 h and analyzed for apoptosis percentage by flow cytometry.
[…] analysis in HepG2 cells was carried out by FACS analysis according to the manufacturer’s directions. See Section 3.3.4 in Supplementary Material.
Figure 4 Compound 9 induces apoptosis in HepG2 cells. (A) HepG2 cells were treated with 1.38 μM of compound 9 for 48 h. Cell apoptosis was quantized by Annexin V-FITC/PI dual staining assay using image-based cytometry. (B) The quantification of HepG2 cell apoptosis.
as §4
as §5, with “method. Cells at density of 1 x 104 were seeded in a 96-well plate at 37 °C for 24 h under 5% CO2.” for “method.”
as §8
Cell cycle analysis in HepG2 cells was investigated using fluorescent Annexin V-FITC/ PI detection kit (BioVision EZCellTM Cell Cycle Analysis Kit Catalog #K920) by flow cytometry assay. […] The samples were immediately analyzed using Facs Calibur flow cytometer (Becton and Dickinson, Heidelberg, Germany). […]
Apoptosis in HepG2 cells was investigated using fluorescent Annexin V-FITC/ PI de-tection kit (BioVision Annexin V-FITC Apoptosis Detection Kit, Catalog #: K101) by flow cy-tometry assay. […] The samples were immediately analyzed using FACS Calibur flow cytometer (Becton and Dickinson, Heidelberg, Germany).
as §9

[5] = tested on: hepatocellular carcinoma HepG2 cell line; assay: MTT cytotoxicity assay, HepG2; assay type: cell-based, human; details: Homo sapiens, HepG2, 24 h, 24 h treatment, mean ± SE
Method: as §6, §7, §4
To measure the cytotoxic activity of the synthesized derivatives 2a-11 in hepatocel-lular carcinoma (HepG2) cell line (ATCC Cat No. HB-8065) as well as normal human liver cell line HL-7702 (ATCC Cat. No. 77402), cell viability assay was assessed using MTT assay method. Cells at density of 1 x 104 were seeded in a 96-well plate at 37 °C for 24 h under 5% CO2. After incubation, the cells were treated with different concentrations of the test compounds 2a-11 and incubated for 24 h, then 20 μl of MTT solution at 5 mg/mL was applied and incubated for 4 h at 37 °C. Dimethyl sulphoxide (DMSO) in volume of 100 µl was added to each well to dissolve the purple formazan that had formed. The color inten-sity of the formazan product, which represents the growth condition of the cells, is quan-tified by using an ELISA plate reader (EXL 800, USA) at 570 nm absorbance. The experi-mental conditions were carried out with at least three replicates, and the experiments were repeated at least three times.
3.3.2. Tubulin inhibitions Assay
as §8
3.3.3. Cell cycle analysis of compound 9
Cell cycle analysis in HepG2 cells was investigated using fluorescent Annexin V-FITC/ PI detection kit (BioVision EZCellTM Cell Cycle Analysis Kit Catalog #K920) by flow cytometry assay. HepG2 cells at a density of 2 × 10^5 per well were harvested and washed twice in PBS. After that, the cells were incubated at 37 °C and 5% CO2. […] Afterward, medium was stained with DNA flu-orochrome PI for 15 min at 37 °C. The samples were immediately analyzed using Facs Calibur flow cytometer (Becton and Dickinson, Heidelberg, Germany).
3.3.4. Apoptosis assay for compound 9
Apoptosis in HepG2 cells was investigated using fluorescent Annexin V-FITC/ PI de-tection kit (BioVision Annexin V-FITC Apoptosis Detection Kit, Catalog #: K101) by flow cy-tometry assay. HepG2 cells at a density of 2 × 10^5 per well were treated with compound 9 at its IC50 (μM) for 48 h, then the cells were harvested and stained with Annexin V-FITC/ PI dye for 15 min in the dark at 37 °C. The samples were immediately analyzed using FACS Calibur flow cytometer (Becton and Dickinson, Heidelberg, Germany).
3.3.5. Measurement of mitochondrial membrane potential (MMP) for compound 9 MMP was measured by FACS analysis using abcam ab113852TMRE Mitochondrial Membrane Potential Assay Kit with DiOC2(3) staining using MitoProbe™ DiOC2(3) Assay Kit for Flow Cytometry (M34150). After treatment with compound 9 at its IC50 concentra-tion, cells were stained with DiOC2(3) dye for 30 min in the incubator, then harvested and washed with PBS. DiOC2(3)-stained cells were represented with Annexin binding buffer and incubated at 37 °C for 15 min. The samples were immediately analyzed using cell […]
3.3.6. Effect on p53, Bax and Bcl-2 p53, Bax and Bcl2 enzyme activities in HepG2 cells were detected in the presence of com-pound 9 at its IC50 concentration (μM). The levels of the tumor suppressor gene p53, apoptotic markers Bax as well as the anti-apoptotic marker Bcl-2 were assessed using p53 ELISA kit, Human Bax ELISA kit and Bcl-2 Elisa kit. […]

[6] = HepG2, IC50 concentration, 48 h

For `COc1ccc(C2=N/C(=C\c3cc(OC)c(OC)c(OC)c3)C(=O)NN2c2ccccc2)cc1OC` [Compound 9, (Z)-3-(3,4-Dimethoxyphenyl)-2-Phenyl-5-(3,4,5-Trimethoxybenzylidene)-1,2-Dihydro-1,2,4-Triazin-6(5H)-one], which melting point is on record?
Its melting point is 248 to 250 °C.

And the “increase in level of p53 compared with negative control” value [1]?
The value was 8.91 fold.

And the “increase in level of Bax compared with negative control” value [2]?
Its value is 4.50 fold.

What about the IC50 [3] of the same compound?
Its IC50 is 29.1 ± 2.03 µM.

What about the “increase in Annexin-V-positive cells compared with untreated control” value ([4]; HepG2) of the same compound?
Its value is roughly 18 fold.

And the “increase in percentage of early apoptosis compared with untreated control” value [4, 6]?
Its value is 16.63 fold.

And the “increase in percentage of late apoptosis compared with untreated control” value [4, 6]?
The value was 60.11 fold.

And the IC50 [5]?
Its IC50 is 1.38 ± 0.15 µM.
